Source: patent US20230172925A1, “SKIN-CARE COMPOSITIONS AND USES THEREOF” (AHAVA - DEAD SEA LABORATORIES LTD., priority 2019, published 2023)

Key:
Format in all cases: cell-based
TNFα = test: Human skin organ culture with UVB stressor, TNFα secretion in the medium; conditions: UVB 200 mJ/cm2; irradiated sample = 100% (53±30 pg/ml); complex, DSE 3.0%, β-Caroten 15.6 ppm
Method: (§1) Topical exposure till 48 hours in total (24 hr recovery following topical application+24 hr after exposure to UVB irradiation) with UVB radiation as stressor on human skin model
(§2) The following general procedure was used in the study:
(§3) Day 1: Topical application of 3 μl of each sample solution on the epidermis of each skin explant. Incubate for 24 hours. SDS 10% was applied only once, and was not farther irradiated with UVB.
(§4) Day 2: Skin explants were washed once with PBS and irradiated with UVB lamp at 200 mJ/cm2. After radiation it was incubated for 30 min and then topically apply each treatment (sample solution) again. Control was not irradiated under UVB light. UVB radiated control was without any treatment except radiation.
(§5) Day 3: Viability and Caspase3 activity were measured for the epidermis layer. The medium was collected for cytokines test.
FIG. 4 illustrates the TNFα secretion results in the medium as observed with 2 to 4 repetition of the tests. In FIG. 4 the TNFα secretion of the irradiated sample “UVB” was selected as 100% and it equals 53±30 pg/ml.

IL-1α = test: Human skin organ culture with UVB stressor, IL-1α secretion in the medium; conditions: UVB; OSM 0.5%, β-Caroten 15.6 ppm
Method: as §1, §2, §3, §4, §5
FIG. 5 illustrates the IL-1α secretion results in the medium as observed with 3 to 4 repetition of the tests. In FIG. 5 the IL-1α secretion of the irradiated sample “UVB” was selected as 100% and it equals 8.1±1.0 pg/ml.

[1] = system: MatTek EFT-400 full thickness tissues; test: DNA microarray gene expression in skin equivalents, complex vs individual ingredients (Example 5); parameters: key to Genes up and downregulation in pathway: + = up-regulated; − = down-regulated; *non-significant down-regulation, thus, regulation is considered as non-affected (NA); conditions: for Up-Regulated Genes (number): cut off of two fold change of adjusted Fold Change, 48 hours
Method: MatTek EFT-400 full thickness tissues were used as the model for this study. Upon arrival, the full thickness tissues were placed into 6 wells plates with 2 ml of culture media and incubated overnight at 37±2° C. and 5±1% CO2. After this overnight incubation the culture media was replaced with 5 ml of fresh media and the tissues were treated topically with the test materials prepared in distilled water as follows:
After the application of the test materials the tissues were incubated at 37±2° C. and […] for 48 hours.
At the end of the treatment period, the tissues were rinsed and transferred to a 2 ml centrifuge tube containing 700 μl of lysis buffer and homogenized. After centrifuging at 14,000×g for 10 minutes at 4° C. the supernatant from each tube was transferred to a new 1.5 ml tube and mixed with and equal volume of 64% ethanol. After mixing the solutions was transferred to glass fiber filter cartridges and the cartridges were loaded into a 1.5 ml collection tube centrifuged for 1 minute at 14,000 RPM in a Napco 2002 Microcentrifuge with a DA-6T fixed angle rotor. The flow through was discarded and any remaining mixture was loaded into the filter cartridge and the centrifugation process was repeated until all of the mixture had been processed. The filter was then washed to remove any residual cellular debris from the RNA bound to the glass fibers by subsequently applying 700 μl of wash solution 1 (1 time) and 500 μl of wash solution 2 (2 times) to the filter cartridge and centrifuging at 14,000 RPM for 1 minute to pass each wash through the cartridge. After each wash, the flow through was discarded. After the final wash one final spin was performed without wash solution to remove any residual wash solution in the filter cartridge. The RNA bound to the glass fibers within the cartridge was then eluted by applying 40 μl of TE buffer (10 mM Tris-HCl, 1 mM EDTA, preheated to 70-80° C.) to the cartridge and centrifuging the cartridge in a new collection tube at 14,000 RPM for one minute. The elution process was then repeated a second time using 20 μl of TE buffer.
First Strand cDNA Synthesis: To start the first strand synthesis, 10 μl of total RNA for each sample was added to a 600 μl PCR tube and the total volume of liquid in the tube will be adjusted to 11 μl with DEPC H2O. Next, 1 μl of T7 Oligo(dT) primer was added and the tube was incubated in a water bath at 70±2° C. for 10 minutes to denature the RNA and then placed on ice to allow the primers to anneal to the poly A ends of the mRNA. After cooling 2 μl of 10× first strand buffer, 1 μl of RNAse inhibitor and 4 μl of dNTP mix were added to each tube, and the tube was incubated at 42° C. in a hybridization oven (Labnet Problot). As soon as the tube was heated, 1 μl of Reverse Transcriptase was added and the tubes were returned to 42±2° C. for 2 hours. At the end of the two hours the tubes were briefly centrifuged to collect all of the fluid at the bottom of the tube and then placed on ice.
Two tubes were prepared for the labeling process, one for Cy3 labeling (green) and one for Cy5 labeling (red). To the Cy3 tube 2 μg of aRNA prepared from the untreated/control sample (the actual color assignment for each sample is not important, but for consistency Cy3 is normally used for the untreated sample) and enough DEPC H2O was added to bring the total volume up to 4 μl. To the Cy5 tube 2 μg of aRNA prepared from the sample treated with the test material and enough DEPC H2O was added to bring the total volume up to 4 μl. To both tubes 5 μl of ASAP labeling buffer was added along with 1 μl of the specific dye for the tube (Cy3 or Cy5). The tubes were incubated for 15 minutes at 85±2° C. At the end of the 15 minutes the tubes were placed on ice to cool them and then add 2.5 μl of ASAP stop solution was added to each tube.

[2] = KEGG_NUCLEOTIDE_EXCISION_REPAIR
[3] = KEGG_SIGNALING_PATHWAYS_REGULATING_PLURIPOTENCY_OF_STEM_CELLS
[4] = WIKI_ASSEMBLY_OF_COLLAGEN_FIBRILS_AND_OTHER_MULTIMERIC_STRUCTURES

`CC1=C(/C=C/C(C)=C/C=C/C(C)=C/C=C/C=C(C)/C=C/C=C(C)/C=C/C2=C(C)CCCC2(C)C)C(C)(C)CCC1` [β-Caroten, β-carotene] was tested, and the “TNFα concentration as % of the irradiated skin explant” value (TNFα) was 70%, the “increase in IL-1α secretion compared to the control” value (IL-1α) was 20% and the z-score ([1]; KEGG_APOPTOSIS) was −0.5665. The z-score ([1]; KEGG_BASE_EXCISION_REPAIR) was −1.4296, the “Genes up and downregulation in pathway” value ([1]; KEGG_CELL_CYCLE) was “−” and the z-score ([1]; KEGG_CELL_CYCLE) was −2.4656. The z-score ([1]; KEGG_CIRCADIAN_RHYTHM_MAMMAL) was −1.209, the z-score ([1]; KEGG_FATTY_ACID_BIOSYNTHESIS) was −0.6185 and the z-score ([1]; KEGG_FATTY_ACID_DEGRADATION) was −1.0292. For the same compound, the z-score ([1]; KEGG_GLYCOLYSIS_GLUCONEOGENESIS) was −1.0754, the z-score ([1]; KEGG_NF_KAPPA_B_SIGNALING_PATHWAY) was 3.1522 and the “Genes up and downregulation in pathway” value [1, 2] was “−”. The z-score [1, 2] was −1.5901, the z-score ([1]; KEGG_OXIDATIVE_PHOSPHORYLATION) was 3.5721 and the “Genes up and downregulation in pathway” value ([1]; KEGG_P53_SIGNALING_PATHWAY) was “−”. It also gave a z-score ([1]; KEGG_P53_SIGNALING_PATHWAY) of −1.6942, a z-score ([1]; KEGG_PROTEASOME) of 1.1865 and a z-score ([1]; KEGG_RETINOL_METABOLISM) of −0.6377. The “Genes up and downregulation in pathway” value [1, 3] was “−”, the z-score [1, 3] was −2.818 and the z-score ([1]; KEGG_SPHINGOLIPID_METABOLISM) was −0.4773. For the same compound, the z-score ([1]; KEGG_TH1_AND_TH2_CELL_DIFFERENTIATION) was 1.3936, the z-score ([1]; KEGG_TIGHT_JUNCTION) was −0.07358 and the z-score ([1]; KEGG_TNF_SIGNALING_PATHWAY) was 5.6735. For the same compound, the z-score ([1]; KEGG_T_CELL_RECEPTOR_SIGNALING_PATHWAY) was 1.5111, the z-score ([1]; KEGG_WNT_SIGNALING_PATHWAY) was −1.5459 and the z-score ([1]; WIKI_ACTIVATION_OF_MATRIX_METALLOPROTEINASES) was 0.8244. For the same compound, the “Genes up and downregulation in pathway” value [1, 4] was “−”, the z-score [1, 4] was −5.9295 and the z-score ([1]; WIKI_COLLAGEN_BIOSYNTHESIS_AND_MODIFYING_ENZYMES) was 4.7943. The “regulation of collagen synthesis and extracellular matrix pathways (Z-Score heatmap, in words)” value ([1]; WIKI_COLLAGEN_BIOSYNTHESIS_AND_MODIFYING_ENZYMES, WIKI_EXTRACELLULAR_MATRIX_ORGANIZATION, WIKI_DEGRADATION_OF_THE_EXTRACELLULAR_MATRIX, WIKI_COLLAGEN_DEGRADATION, WIKI_ASSEMBLY_OF_COLLAGEN_FIBRILS_AND_OTHER_MULTIMERIC_STRUCTURES) was “very much down regulated”, the z-score ([1]; WIKI_COLLAGEN_DEGRADATION) was −5.0219 and the z-score ([1]; WIKI_DEGRADATION_OF_THE_EXTRACELLULAR_MATRIX) was 4.6457. The “Genes up and downregulation in pathway” value ([1]; WIKI_ELASTIC_FIBRE_FORMATION) was “−”, the z-score ([1]; WIKI_ELASTIC_FIBRE_FORMATION) was −2.0745 and the z-score ([1]; WIKI_ELECTRON_TRANSPORT_CHAIN_IN_MITOCHONDRIA) was 2.7536. The z-score ([1]; WIKI_EXTRACELLULAR_MATRIX_ORGANIZATION) was 4.5653, the “Genes up and downregulation in pathway” value ([1]; WIKI_KERATINIZATION) was “+” and the z-score ([1]; WIKI_KERATINIZATION) was 6.3972. It also gave a z-score ([1]; WIKI_NRF2_PATHWAY) of 1.7004, a z-score ([1]; WIKI_RESPIRATORY_ELECTRON_TRANSPORT_ATP_SYNTHESIS) of 2.2177 and a z-score ([1]; WIKI_SPHINGOLIPID_METABOLISM) of −0.9459. The “Up-Regulated Genes (number)” value ([1]; 19254 genes evaluated) was 196 and the “Up-Regulated Genes (number)” value ([1]; second column of Table 6) was 503.
